Source: patent publication US20120202754A1 (priority 2009, published 2012)

These substances were tested against BoNT A light chain (BoNT A Lc) (Clostridium botulinum, UniProt P0DPI0).
Type: biochemical

Chain of BoNT A light chain (BoNT A Lc) (P0DPI0 2-448 limits assumed): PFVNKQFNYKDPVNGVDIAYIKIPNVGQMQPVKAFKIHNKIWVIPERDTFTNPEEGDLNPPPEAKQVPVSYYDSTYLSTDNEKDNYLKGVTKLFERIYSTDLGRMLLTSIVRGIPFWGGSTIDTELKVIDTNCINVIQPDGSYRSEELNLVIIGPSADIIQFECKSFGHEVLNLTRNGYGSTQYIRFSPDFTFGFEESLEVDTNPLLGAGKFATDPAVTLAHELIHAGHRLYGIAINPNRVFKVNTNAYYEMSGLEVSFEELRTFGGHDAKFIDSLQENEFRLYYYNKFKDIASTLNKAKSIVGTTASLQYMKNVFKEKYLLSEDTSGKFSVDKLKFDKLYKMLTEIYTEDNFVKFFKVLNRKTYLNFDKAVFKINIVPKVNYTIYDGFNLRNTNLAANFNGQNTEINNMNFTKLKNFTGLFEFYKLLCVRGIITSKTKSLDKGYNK

| Substance | effect of substitution or truncation on hydrolysis rate (in words) |
| --- | --- |
| N R V R I D A A N Q R A T R M [Peptide P5] | enhanced cleavage velocity |
| S N K V R I D Q A N Q R A T K M L [Peptide P3] | further enhanced the rate |
| S N R V R I D Q A N Q R A T R M L [Peptide P4] | had no effect |
| V R I D A A N Q R A T R M [Peptide P7] | decreased the hydrolysis rate significantly |
